Here are results for two compounds from patent US12685309B2, “Agrochemical formulations” (BASF CORPORATION, priority 2020, dated 2026).

For the series the following is noted: for Appearance of mixture with water (solubility): 400 g mixed with water and stirred, 400 g/l mixture.

From the text: 400 g of Dicamba with the 93.8 wt % purity as defined above in the experimental part were mixed with water and stirred to obtain a 400 g/l mixture of dicamba.
400 g of dicamba with a purity of 98 wt % were mixed with water.

For `COc1c(Cl)ccc(Cl)c1C(=O)[O-].[K+]` [Dicamba with the 93.8 wt % purity, potassium dicamba], the “Appearance of mixture with water (solubility)” value is given as “turbid mixture”. For the same compound, the “Stability of the aqueous mixture on storage” value (400 g/l mixture in water, room temperature, two weeks) was “serum formation and sedimentation of the undissolved components”.

With `COc1c(Cl)ccc(Cl)c1C(=O)O` [dicamba with a purity of 98 wt %, 3,6-dichloro-2-methoxybenzoic acid], the “Appearance of mixture with water (solubility)” value is on record as “clear solution”.
